Here are results for 22 compounds from patent US8568755B2 (priority 2007, dated 2013).

Where “and” joins values, the source holds several entries; their conditions need not be identical. Identical values can stand only once. Like-named read-outs stand apart in the source and are kept apart here.

The test system of one test is Erysiphe graminis. The test can be described thus: Test on preventive effect against wheat powdery mildew (Test Example 1). Type of test: in vivo.
In another test the test system is Sphaerotheca fuliginea. Type of test: in vivo.
Where [1] appears, read: partner fungicide alone 125 ppm.
Setting [2] is: partner fungicide alone 250 ppm.
The mark [3] stands for this setting: partner fungicide alone 500 ppm.

As to `FC(F)C(F)(F)OCC(Cn1cncn1)c1ccc(Cl)cc1Cl` (stereo not drawn) [tetraconazole], the “diseased area ratio to non-treated section” value with Erysiphe graminis (fungicide (b) alone 0.125 ppm) turned out to be 60.0; in the test with Erysiphe graminis (fungicide (b) alone 0.5 ppm) it was 52.5.

As to potassium phosphite, the “diseased area ratio to non-treated section (experimental value)” value in the test on Sphaerotheca fuliginea (single use at 100 ppm) amounted to 85.0; in the test on Sphaerotheca fuliginea (single use at 500 ppm) it was 80.0.

`CCCN(CC)CC1COC2(CCC(C(C)(C)C)CC2)O1` (stereo not drawn) [spiroxamine]: the “diseased area ratio to non-treated section” value in the test on Erysiphe graminis (fungicide (b) alone 12.5 ppm) is listed as 97.0; in the test on Erysiphe graminis (fungicide (b) alone 25 ppm) it was 15.2; with Erysiphe graminis (fungicide (b) alone 50 ppm) it was 6.1.

Consider `Fc1ccc(Oc2ccnc3cc(Cl)cc(Cl)c23)cc1` [quinoxyfen], for which the “diseased area ratio to non-treated section” value was 80.0 in the test with Erysiphe graminis (fungicide (b) alone 0.06 ppm) and 77.5 in the test on Erysiphe graminis (fungicide (b) alone 0.125 ppm).

Regarding polyoxins, the “diseased area ratio to non-treated section” value in the test with Sphaerotheca fuliginea (setting [1]) amounted to 40.0; with Sphaerotheca fuliginea (setting [2]), 35.0.

For `COc1cc(C)c(C(=O)c2c(OC)cnc(Cl)c2C(F)(F)F)c(OC)c1OC` [Compound B, 4-(2,3,4-trimethoxy-6-methylbenzoyl)-2-chloro-3-trifluoromethyl-5-methoxypyridine], the “diseased area ratio to non-treated section” value in the test on Erysiphe graminis (partner fungicide alone 0.125 ppm) is given as 50.0; with Erysiphe graminis (partner fungicide alone 0.5 ppm), 30.0.

As to `Cc1cc(OC(C)C)ccc1C(=O)C(C)(C)NC(=O)c1ncccc1C(F)(F)F` [No. 4], the “diseased area ratio to non-treated section” value is 17.5 with Erysiphe graminis (Compound No.x alone 16 ppm); 17.5 in the test with Erysiphe graminis (Compound No.x alone 31 ppm); 15.0 and 7.5 with Erysiphe graminis (Compound No.x alone 63 ppm); 5.0 in the test with Erysiphe graminis (Compound No.x alone 125 ppm).

Take `CNC(=O)/C(=N/OC)c1ccccc1COc1cc(C)ccc1C` [dimoxystrobin]: the “diseased area ratio to non-treated section” value in the test with Erysiphe graminis (fungicide (b) alone 5 ppm) was found to be 5.0.

Turning to `CCO[PH](=O)O` [fosetyl-Al], the “diseased area ratio to non-treated section” value in the test with Erysiphe graminis (fungicide (b) alone 500 ppm) and in the test on Erysiphe graminis (fungicide (b) alone 1000 ppm) was 97.5 each time.

With `CC12CC1(C)C(=O)N(c1cc(Cl)cc(Cl)c1)C2=O` (stereo not drawn) [procymidone], the results for the “diseased area ratio to non-treated section” value in the test on Sphaerotheca fuliginea (setting [1]), in the test with Sphaerotheca fuliginea (setting [2]) and in the test on Sphaerotheca fuliginea (setting [3]) were 85.0, 82.5 and 70.0, respectively.

With `[Cl-].[Cu+2].[Cu+2].[OH-].[OH-].[OH-]` [copper oxychloride], the “diseased area ratio to non-treated section” value was 25.0 in the test with Sphaerotheca fuliginea (setting [2]); 21.9 in the test with Sphaerotheca fuliginea (setting [3]); 20.7 and 20.6 in the test with Sphaerotheca fuliginea (partner fungicide alone 1000 ppm).

Turning to `CC1(C)CCC(Cc2ccc(Cl)cc2)C1(O)Cn1cncn1` (stereo not drawn) [metconazole], the “diseased area ratio to non-treated section” value in the test with Erysiphe graminis (fungicide (b) alone 0.0075 ppm) is given as 95.0; in the test on Erysiphe graminis (fungicide (b) alone 0.03 ppm), 55.0.

In the case of `CC(Cc1ccc(C(C)(C)C)cc1)CN1CCCCC1` (stereo not drawn) [fenpropidin], the “diseased area ratio to non-treated section” value with Erysiphe graminis (fungicide (b) alone 12.5 ppm) turned out to be 27.5; with Erysiphe graminis (fungicide (b) alone 25 ppm), 2.0; in the test on Erysiphe graminis (fungicide (b) alone 50 ppm), 1.0.

As to `COP(=S)(OC)Oc1c(Cl)cc(C)cc1Cl` [tolclofosmethyl], the “diseased area ratio to non-treated section (experimental value)” value in the test with Sphaerotheca fuliginea (single use at 100 ppm) is recorded as 80.0.

Regarding `CC(C)Oc1cccc(NC(=O)c2ccccc2C(F)(F)F)c1` [flutolanil], the figures for the “diseased area ratio to non-treated section” value with Erysiphe graminis (fungicide (b) alone 500 ppm) and in the test on Erysiphe graminis (fungicide (b) alone 1000 ppm) were 7.5 and 12.5, respectively.

As to `Cc1ccsc1C(=O)NC(C)(C)C(=O)c1ccc(Cl)c(Cl)c1` [No. 2], the “diseased area ratio to non-treated section” value is 70.0 with Sphaerotheca fuliginea (Compound No.x alone 2 ppm); 50.0 and 32.5 in the test on Sphaerotheca fuliginea (Compound No.x alone 4 ppm).

Take `N=C(N)NCCCCCCCCNCCCCCCCCNC(=N)N` [iminoctadine]: the “diseased area ratio to non-treated section” value came to 65.0 with Sphaerotheca fuliginea (partner fungicide alone 4 ppm), 45.0 in the test with Sphaerotheca fuliginea (partner fungicide alone 8 ppm) and 30.0 in the test on Sphaerotheca fuliginea (partner fungicide alone 16 ppm).

For the compound `COc1cc(C)c(C(=O)c2c(OC)ccc(Br)c2C)c(OC)c1OC` [metrafenone, 3′-bromo-2,3,4,6′-tetramethoxy-2′,6-dimethylbenzophenone], the “diseased area ratio to non-treated section” value in the test with Erysiphe graminis (fungicide (b) alone 0.0075 ppm) stood at 100; with Erysiphe graminis (fungicide (b) alone 0.03 ppm), 35.0.

As for `C[C@H]1O[C@H](O[C@H]2[C@H](O)[C@@H](O)[C@@H](O)[C@H](O)[C@@H]2O)[C@@H](N)C[C@@H]1NC(=N)C(=O)O` [kasugamycin], the “diseased area ratio to non-treated section” value in the test on Erysiphe graminis (fungicide (b) alone 50 ppm) is given as 97.5; with Erysiphe graminis (fungicide (b) alone 500 ppm), 55.0.

`CC#Cc1cc(C)nc(Nc2ccccc2)n1` [mepanipyrim]: the “diseased area ratio to non-treated section” value in the test on Sphaerotheca fuliginea (partner fungicide alone 63 ppm) and with Sphaerotheca fuliginea (setting [1]) was 0.5 each time.

`COC(=O)NC(=S)Nc1ccccc1NC(=S)NC(=O)OC` [thiophanate-methyl]: the “diseased area ratio to non-treated section” value with Sphaerotheca fuliginea (partner fungicide alone 63 ppm) was 75.0; with Sphaerotheca fuliginea (setting [1]) it was 65.0.

Take `COc1ccc(C(=CC(=O)N2CCOCC2)c2ccc(Cl)cc2)cc1OC` [dimethomorph]: the “diseased area ratio to non-treated section (experimental value)” value with Sphaerotheca fuliginea (single use at 500 ppm) came out at 95.0.
